Measurements from patent publication US10233195B2, “Anti-fibrotic pyridinones” (InterMune, Inc., priority 2014, dated 2019).

System: TGF-b induced Endothelin-1 production
Test: ET-1 assay: inhibitory effect on TGF-b induced endothelin-1 production
Type: cell-based
Settings: Homo sapiens, Fibroblast; fibroblasts, stimulant (TGFb, serum, LPA etc), ET-1 in media by ELISA, 4-parameter fit
Method in brief: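 Fibroblasts (primary human lung/dermal, HFL-1, 3T3) serum-starved 0-48 h, preincubated ~30 min with compound, then stimulated (TGFb, serum or LPA) for 16-48 h. Secreted ET-1 measured by ELISA; EC50 from 4-parameter logistic fit, with CC50 from ATPlite in the same wells.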

SMILES | EC50
O=c1ccc(-c2cn[nH]c2)cn1-c1cccc(F)c1 [Compound 372] | > 200 µM
Cn1cc(-c2cn(-c3ccc(C#N)cc3)c(=O)c3nccnc23)cn1 [Compound 398] | > 200 µM
NS(=O)(=O)c1ccc(-c2ccc(=O)n(-c3cccc(C(F)(F)F)c3)c2)cc1 [Compound 329] | > 200 µM
Cc1ccc(=O)n(-c2ccccc2)n1 [Compound 359] | > 200 µM
Cc1ccccc1-n1cc(-c2cnn(C)c2)ccc1=O [Compound 439] | > 200 µM
Cn1cc(-c2cn(-c3ccc(Cl)cc3)c(=O)c3nccnc23)cn1 [Compound 397] | > 200 µM
COC(=O)Nc1cc(=O)n(-c2ccc(OC(F)(F)F)cc2)cc1-c1ccc(F)cc1 [Compound 111] | > 200 µM
CC(=O)c1ccc(=O)n(-c2ccc(Cl)cc2)c1 [Compound 12] | > 200 µM
COc1ccc(-n2cc(-c3ccc(S(N)(=O)=O)cc3)ccc2=O)cc1 [Compound 328] | > 200 µM
Cc1cc(=O)n(-c2ccc(OC(F)(F)F)cc2)cc1-c1cccc(Cl)c1 [Compound 191] | 50 to 200 µM
Cc1cc(=O)n(-c2ccc3c(c2)OCCO3)cc1-c1cnn(C)c1 [Compound 222] | > 200 µM
O=c1ccc(-c2ccccc2)cn1-c1cccc(F)c1 [Compound 296] | > 200 µM
O=c1cc(OCCN2CCCC2)c(-c2ccc(F)cc2)cn1-c1ccc(OC(F)(F)F)cc1 [Compound 93] | < 50 µM
Cc1cc(=O)n(-c2ccc(OC(F)(F)F)cc2)cc1-c1ccc2c(c1)OCC(=O)N2CCO [Compound 566] | > 200 µM
Cc1cc(=O)n(-c2ccc(OC(F)(F)F)cc2)cc1-c1nn[nH]n1 [Compound 253] | > 200 µM
Cn1cc(-c2cn(-c3ccc(Cl)cc3)c(=O)c3c2ccn3C)cn1 [Compound 599] | < 50 µM
O=C1COCCN1CCOc1cc(=O)n(-c2ccc(OC(F)(F)F)cc2)cc1-c1ccc(F)cc1 [Compound 98] | 50 to 200 µM
N#Cc1ccc(-n2cc(-c3cn[nH]c3)c3cc[nH]c3c2=O)cc1 [Compound 608] | 50 to 200 µM
Cc1cc(=O)n(-c2ccc(OC(F)(F)F)cc2C)cc1-c1cnn(C)c1 [Compound 442] | > 200 µM
Cn1cc(-c2cn(-c3ccc(OC(F)(F)F)cc3)c(=O)cc2OCCN2CCOCC2)cn1 [Compound 147] | > 200 µM
CC(C)c1cc(=O)n(-c2ccc(OC(F)(F)F)cc2)cc1-c1cnn(C)c1 [Compound 236] | 50 to 200 µM
C[C@H]1CCC(=O)N(c2ccccc2)C1 [Compound 83] | > 200 µM

SMILES | EC50
Cn1cc(-c2cn(-c3ccc(OC(F)(F)F)cc3)c(=O)cc2Cl)cn1 [Compound 122] | > 200 µM
O=c1cc(NCc2ncccn2)ccn1-c1ccc(OC(F)(F)F)cc1 [Compound 546] | > 200 µM
Cn1cc(-c2cn(-c3ccc(OC(F)(F)F)cc3)c(=O)cc2N2CCOCC2)cn1 [Compound 128] | < 50 µM
Cc1cc(=O)n(-c2ccc(OC(F)(F)F)cc2)cc1-c1ccc2[nH]c(=O)oc2c1 [Compound 429] | > 200 µM
CC(=O)n1cc(-c2ccc(=O)n(-c3ccccc3)c2)cn1 [Compound 67] | > 200 µM
Cn1cc(-c2ccc(=O)n(-c3ccc(OC(F)(F)F)cc3)n2)cn1 [Compound 363] | > 200 µM
Cn1cc(-c2cnc(=O)n(-c3ccc(OC(F)(F)F)cc3)c2)cn1 [Compound 364] | > 200 µM
Cc1n[nH]c(C)c1-c1ccc(=O)n(-c2ccc(F)cc2)c1 [Compound 379] | > 200 µM
Cc1cc(=O)n(-c2ccc3[nH]cnc3c2)cc1-c1cnn(C)c1 [Compound 233] | > 200 µM
Cc1cc(=O)n(-c2ccc(OC(F)(F)F)cc2)cc1-c1ccc(F)cc1 [Compound 213] | > 200 µM
Cc1nc2c(-c3cn[nH]c3)cn(-c3ccc(OC(F)(F)F)cc3)c(=O)c2s1 [Compound 587] | < 50 µM
CC(C)OC(=O)Nc1cc(=O)n(-c2ccc(OC(F)(F)F)cc2)cc1-c1ccc(F)cc1 [Compound 112] | > 200 µM
Cn1cc(-c2cn(-c3ccc(F)cc3)c(=O)cc2Oc2ccccc2)cn1 [Compound 532] | < 50 µM
Cc1cc(=O)n(-c2ccc(F)c(NC(N)=O)c2)cc1-c1ccc(F)cc1 [Compound 559] | < 50 µM
CCCNC(=O)Nc1cc(=O)n(-c2ccc(OC(F)(F)F)cc2)cc1-c1ccc(F)cc1 [Compound 115] | > 200 µM
Cc1n[nH]c(C)c1-c1ccc(=O)n(-c2cccc(F)c2)c1 [Compound 381] | > 200 µM
CC(C)OCCn1ccc2c(-c3cn[nH]c3)cn(-c3ccc(OC(F)(F)F)cc3)c(=O)c21 [Compound 692] | < 50 µM
Cc1cc(=O)n(-c2ccc(OC(F)(F)F)cc2)cc1-c1ccccc1F [Compound 194] | < 50 µM
CCOc1ccc(-n2cc(-c3cn[nH]c3)c3ncccc3c2=O)c(C)c1 [Compound 580] | < 50 µM
Cc1cc(=O)n(-c2ccccc2F)cc1-c1cnn(C)c1 [Compound 230] | > 200 µM
Nc1cc(=O)n(-c2ccc(OC(F)(F)F)cc2)cc1-c1ccc(F)cc1 [Compound 88] | 50 to 200 µM
Cc1nc2c(=O)n(-c3ccc(OC(F)(F)F)cc3)cc(-c3cnn(C)c3)c2n1C [Compound 674] | 50 to 200 µM

SMILES | EC50
Cc1n[nH]c(C)c1-c1ccc(=O)n(-c2cccc(C(F)(F)F)c2)c1 [Compound 384] | 50 to 200 µM
CCOc1ccc(-n2cc(-c3cnn(C)c3)c(OCCOC(C)C)cc2=O)c(C)c1 [Compound 696] | 50 to 200 µM
O=C(NCc1ccccc1)c1cc(=O)n(-c2ccc(OC(F)(F)F)cc2)cc1-c1ccc(F)cc1 [Compound 118] | > 200 µM
Cn1cc(-c2cn(-c3ccc(OC(F)(F)F)cc3)c(=O)cc2Oc2ccccc2F)cn1 [Compound 408] | > 200 µM
Cn1cc(-c2cn(-c3ccc(OC(F)(F)F)cc3)c(=O)cc2OC2CCS(=O)(=O)CC2)cn1 [Compound 149] | 50 to 200 µM
CC(=O)Nc1cccc(-n2cc(-c3ccc(F)cc3)c(Oc3ccccc3)cc2=O)c1 [Compound 536] | < 50 µM
Cc1cc(=O)n(-c2ccc(OC(F)(F)F)cc2)cc1-c1nnn(C)n1 [Compound 256] | > 200 µM
CCOc1ccc(-n2cc(-c3cnn(C)c3)c(NCc3cccnc3)cc2=O)c(C)c1 [Compound 701] | < 50 µM
Cc1cc(=O)n(-c2ccc(OC(F)(F)F)cc2)cc1-c1cccc2c1OCC(=O)N2 [Compound 423] | > 200 µM
O=c1ccc(C(F)(F)F)cn1-c1ccccc1Cl [Compound 281] | > 200 µM
Cc1cc(=O)n(-c2ccccc2C)cc1-c1ccc(F)cc1 [Compound 214] | 50 to 200 µM
Cc1cc(=O)n(-c2ccccc2)cc1-c1ccccc1 [Compound 165] | 50 to 200 µM
O=c1ccc(-c2cncnc2)cn1-c1ccc(F)cc1 [Compound 344] | > 200 µM
CC(C)n1cc(-c2ccc(=O)n(-c3ccccc3)c2)cn1 [Compound 388] | > 200 µM
O=c1ccc(-c2cccc(Cl)c2)cn1-c1ccccc1F [Compound 324] | 50 to 200 µM
O=c1ccc(-c2cccc(Cl)c2)cn1-c1cccc(F)c1 [Compound 320] | < 50 µM
CC(=O)Nc1cccc(-n2cc(-c3ccc(F)cc3)c(C)cc2=O)c1 [Compound 172] | > 200 µM
CC(=O)c1ccc(=O)n(-c2cccc(C(F)(F)F)c2)c1 [Compound 11] | > 200 µM
O=c1ccc(-c2ccc(F)cc2)cn1-c1cccc(C(F)(F)F)c1 [Compound 289] | 50 to 200 µM
COc1cc(-n2cc(-c3cn[nH]c3)c(C)cc2=O)cc(OC)c1OC [Compound 220] | > 200 µM
Cn1cc(-c2cn(-c3ccc(OC(F)(F)F)cc3)c(=O)c3c2NCCC3)cn1 [Compound 44] | > 200 µM
Cn1cc(-c2cn(-c3ccc(Cl)cc3)c(=O)cc2Oc2ccccc2)cn1 [Compound 534] | < 50 µM

SMILES | EC50
COc1ccc(-n2cc(C)ccc2=S)cc1 [Compound 332] | > 200 µM
O=C1NC=CCN1c1ccccc1 [Compound 365] | > 200 µM
Cc1cc(=O)n(-c2ccc(OC(F)(F)F)cc2)cc1-c1ccc2c(c1)oc(=O)n2CCO [Compound 558] | 50 to 200 µM
CC(=O)Nc1cccc(-n2cc(-c3ccccc3)c(C)cc2=O)c1 [Compound 167] | > 200 µM
O=c1ccc(Br)cn1-c1cccc(F)c1 [Compound 272] | > 200 µM
Cc1cc(=O)n(-c2ccc(C(F)(F)F)cc2C)cc1-c1ccccc1 [Compound 170] | < 50 µM
CCOc1ccc(-n2cc(-c3cccc(F)c3)c(C)cc2=O)c(C)c1 [Compound 193] | 50 to 200 µM
O=c1ccc(C(F)(F)F)cn1-c1ccc(OC(F)(F)F)cc1 [Compound 275] | > 200 µM
COc1cc(=O)n(-c2ccc(OC(F)(F)F)cc2)cc1-c1ccc(F)cc1 [Compound 85] | > 200 µM
CCn1cnc2c(-c3cnn(C(C)C)c3)cn(-c3ccc(OC(F)(F)F)cc3)c(=O)c21 [Compound 671] | < 50 µM
Cn1cc(-c2cn(-c3ccc(OC(F)(F)F)cc3)c(=O)cc2OCCN2CCOCC2=O)cn1 [Compound 150] | 50 to 200 µM
Cc1cc(=O)n(-c2ccccc2F)cc1-c1ccccc1 [Compound 171] | 50 to 200 µM
Cc1cc(=O)n(-c2ccc(OC(F)(F)F)cc2)cc1-c1ccc2cn(C)nc2c1 [Compound 250] | 50 to 200 µM
CN1CCC(Oc2cc(=O)n(-c3ccc(OC(F)(F)F)cc3)cc2-c2cnn(C)c2)CC1 [Compound 151] | < 50 µM
Cc1cc(=O)n(-c2cccc(C(F)(F)F)c2)cc1-c1ccccc1 [Compound 163] | < 50 µM
O=c1cc(Oc2ccccc2)c(-c2ccc(F)cc2)cn1-c1ccc(OC(F)(F)F)cc1 [Compound 102] | > 200 µM
O=c1ccc(-c2ccc(F)cc2)nn1-c1ccc(OC(F)(F)F)cc1 [Compound 362] | > 200 µM
COc1ccc(-c2ccc(=O)n(-c3ccccc3Cl)c2)cc1 [Compound 310] | 50 to 200 µM
CCOc1ccc(-n2cc(-c3cnn(C)c3)c(OCCOCCOC)cc2=O)c(C)c1 [Compound 697] | 50 to 200 µM
Cn1cc(-c2cn(-c3ccc(OC(F)(F)F)cc3)c(=O)c3c2OCC(=O)N3)cn1 [Compound 393] | > 200 µM
